Data reported in ChEMBL document CHEMBL1201862, “PubChem BioAssay data set” (2004).
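All cell lines were grown in 96-well plates and treated with compound for 48 hours. GI50 is the concentration that inhibits growth by half.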 Active and inactive are the calls of the source. Rule as the data show it: active = GI50 up to about 1.1 µM and inactive = higher. Square brackets hold non-standard residues; d marks the D form. Peptide text beside a SMILES is read from it.

What was measured:
Test in all cases: inhibition of tumour cell growth, NCI panel, 48 h
PC-3 = test system: PC-3
NCI-H522 = test system: NCI-H522
HOP-92 = test system: HOP-92
HCC 2998 = test system: HCC 2998
ACHN = test system: ACHN
SK-MEL-28 = test system: SK-MEL-28
CAKI-1 = test system: CAKI-1
OVCAR-8 = test system: OVCAR-8
SR = test system: SR
SK-MEL-5 = test system: SK-MEL-5
MDA-MB-435 = test system: MDA-MB-435
A549 = test system: A549
LOX IMVI = test system: LOX IMVI
NCI-H460 = test system: NCI-H460
MCF7 = test system: MCF7
SK-MEL-2 = test system: SK-MEL-2
UO-31 = test system: UO-31
A498 = test system: A498
T47D = test system: T47D
MOLT-4 = test system: MOLT-4

SMILES	GI50 (PC-3)	GI50 (NCI-H522)	GI50 (HOP-92)	GI50 (HCC 2998)	GI50 (ACHN)	GI50 (SK-MEL-28)	GI50 (CAKI-1)	GI50 (OVCAR-8)	GI50 (SR)	GI50 (SK-MEL-5)	GI50 (MDA-MB-435)	GI50 (A549)	GI50 (LOX IMVI)	GI50 (NCI-H460)	GI50 (MCF7)	GI50 (SK-MEL-2)	GI50 (UO-31)	GI50 (A498)	GI50 (T47D)	GI50 (MOLT-4)
CN(C)CCCc1cccnc1	> 100 µM (inactive)	> 100 µM (inactive)	> 100 µM (inactive)	> 100 µM (inactive)	> 100 µM (inactive)	> 100 µM (inactive)	> 100 µM (inactive)	> 100 µM (inactive)	> 100 µM (inactive)	> 100 µM (inactive)	> 100 µM (inactive)	> 100 µM (inactive)	> 100 µM (inactive)	> 100 µM (inactive)	> 100 µM (inactive)	> 100 µM (inactive)	> 100 µM (inactive)	> 100 µM (inactive)	> 100 µM (inactive)	–
COc1ccc(CC2C(=O)NC(C)C(=O)N(C)C3C(=O)N(C)C(Cc4ccc(O)c(c4)Oc4ccc(cc4)C3O)C(=O)NC(C)C(=O)NC(C)C(=O)N2C)cc1 (stereo not drawn)	0.01 µM (active)	0.0125 µM (active)	0.0137 µM (active)	0.0391 µM (active)	0.0891 µM (active)	0.00223 µM (active)	0.0512 µM (active)	0.021 µM (active)	< 0.01 µM (active)	0.00746 µM (active)	< 0.01 µM (active)	0.0353 µM (active)	0.00225 µM (active)	0.0167 µM (active)	0.0125 µM (active)	0.0125 µM (active)	0.824 µM (active)	0.022 µM (active)	< 0.01 µM (active)	0.0162 µM (active)
Cc1nc2ccccc2c(=O)n1-c1n[nH]c2ccccc12	> 100 µM (inactive)	> 100 µM (inactive)	> 100 µM (inactive)	> 100 µM (inactive)	> 100 µM (inactive)	> 100 µM (inactive)	> 100 µM (inactive)	> 100 µM (inactive)	> 100 µM (inactive)	> 100 µM (inactive)	> 100 µM (inactive)	> 100 µM (inactive)	> 100 µM (inactive)	> 100 µM (inactive)	> 100 µM (inactive)	> 100 µM (inactive)	> 100 µM (inactive)	> 100 µM (inactive)	> 100 µM (inactive)	> 100 µM (inactive)
O=[N+]([O-])c1ccc2sc(/C=N/c3ccccn3)cc2c1	69.5 µM (inactive)	> 100 µM (inactive)	69.8 µM (inactive)	> 100 µM (inactive)	98.6 µM (inactive)	> 100 µM (inactive)	> 100 µM (inactive)	35.2 µM (inactive)	26.4 µM (inactive)	> 100 µM (inactive)	71.6 µM (inactive)	> 100 µM (inactive)	31.9 µM (inactive)	> 100 µM (inactive)	30.4 µM (inactive)	> 100 µM (inactive)	> 100 µM (inactive)	> 100 µM (inactive)	26 µM (inactive)	19.7 µM (inactive)
CCOC(=O)C1CC(C(=O)c2ccccc2)N2c3ccccc3-c3ccccc3C12 (stereo not drawn)	40.6 µM (inactive)	50.9 µM (inactive)	52.8 µM (inactive)	> 100 µM (inactive)	> 100 µM (inactive)	> 100 µM (inactive)	> 100 µM (inactive)	33.8 µM (inactive)	19.2 µM (inactive)	45.1 µM (inactive)	86.7 µM (inactive)	73.6 µM (inactive)	65 µM (inactive)	> 100 µM (inactive)	> 100 µM (inactive)	> 100 µM (inactive)	32.7 µM (inactive)	> 100 µM (inactive)	23.6 µM (inactive)	52 µM (inactive)
CC(NC1=CC(=O)c2cccnc2C1=O)C(O)c1ccccc1 (stereo not drawn)	1.65 µM (inactive)	1.42 µM (inactive)	9.73 µM (inactive)	3.1 µM (inactive)	2.05 µM (inactive)	1.62 µM (inactive)	1.32 µM (inactive)	2.92 µM (inactive)	2.86 µM (inactive)	1.09 µM (active)	0.783 µM (active)	1.9 µM (inactive)	0.942 µM (active)	0.733 µM (active)	1.35 µM (inactive)	1.5 µM (inactive)	2.15 µM (inactive)	3.62 µM (inactive)	2.87 µM (inactive)	4.12 µM (inactive)
O=C(Cn1c(=O)oc2ccc(C(=O)c3ccccc3Cl)cc21)c1ccc([N+](=O)[O-])cc1	22.8 µM (inactive)	14.9 µM (inactive)	27.5 µM (inactive)	17.9 µM (inactive)	32.7 µM (inactive)	37.8 µM (inactive)	38.5 µM (inactive)	24.7 µM (inactive)	8.39 µM (inactive)	16.3 µM (inactive)	17.7 µM (inactive)	25.2 µM (inactive)	17 µM (inactive)	18.4 µM (inactive)	22.9 µM (inactive)	20.4 µM (inactive)	23.6 µM (inactive)	30.1 µM (inactive)	8.11 µM (inactive)	8.2 µM (inactive)
O=C(O)CN1CCNCCN(CC(=O)O)CC1	18.1 µM (inactive)	3.28 µM (inactive)	8.38 µM (inactive)	10.6 µM (inactive)	> 84.5 µM (inactive)	33.8 µM (inactive)	> 100 µM (inactive)	2.63 µM (inactive)	3.84 µM (inactive)	5.48 µM (inactive)	11.6 µM (inactive)	14.8 µM (inactive)	17.3 µM (inactive)	7.66 µM (inactive)	3.73 µM (inactive)	26.4 µM (inactive)	10.2 µM (inactive)	3.42 µM (inactive)	> 100 µM (inactive)	4.81 µM (inactive)
Cc1cccc(/N=N/c2ccc(O)c(CN(C)C)c2)c1	36.4 µM (inactive)	10.5 µM (inactive)	6.17 µM (inactive)	16.4 µM (inactive)	8 µM (inactive)	19.2 µM (inactive)	20.7 µM (inactive)	21.3 µM (inactive)	43.1 µM (inactive)	14 µM (inactive)	15.2 µM (inactive)	32.4 µM (inactive)	5.41 µM (inactive)	16.7 µM (inactive)	39.1 µM (inactive)	20.7 µM (inactive)	7.35 µM (inactive)	18.1 µM (inactive)	11.5 µM (inactive)	20 µM (inactive)
Clc1ccc(C2=Cc3nc2c(-c2ccccc2)c2ccc([nH]2)c(-c2ccccc2)c2nc(c(-c4ccccc4)c4ccc([nH]4)c3-c3ccccc3)C=C2)cc1	> 62.5 µM (inactive)	> 62.5 µM (inactive)	61 µM (inactive)	> 62.5 µM (inactive)	> 62.5 µM (inactive)	> 62.5 µM (inactive)	13.9 µM (inactive)	> 62.5 µM (inactive)	> 62.5 µM (inactive)	> 62.5 µM (inactive)	> 62.5 µM (inactive)	> 62.5 µM (inactive)	> 62.5 µM (inactive)	> 62.5 µM (inactive)	> 62.5 µM (inactive)	> 62.5 µM (inactive)	> 62.5 µM (inactive)	> 62.5 µM (inactive)	> 62.5 µM (inactive)	> 62.5 µM (inactive)
CCCCCCCCCCCCCCCCCCNc1ccn(C2OC(COP(=O)(O)OCC3OC(n4cc(C)c(=O)[nH]c4=O)CC3F)C(O)C2O)c(=O)n1 (stereo not drawn)	1.61 µM (inactive)	4.29 µM (inactive)	18.4 µM (inactive)	5.7 µM (inactive)	13 µM (inactive)	8.87 µM (inactive)	8.73 µM (inactive)	8.51 µM (inactive)	1.44 µM (inactive)	9.89 µM (inactive)	7.91 µM (inactive)	11.2 µM (inactive)	7.59 µM (inactive)	7.41 µM (inactive)	9.46 µM (inactive)	9.14 µM (inactive)	13.2 µM (inactive)	13.8 µM (inactive)	7.38 µM (inactive)	3.13 µM (inactive)
COc1cc(OC)nc(-n2c(N)c(C#N)c3ccc([N+](=O)[O-])cc3c2=O)n1	> 100 µM (inactive)	18.3 µM (inactive)	> 100 µM (inactive)	> 100 µM (inactive)	> 100 µM (inactive)	> 100 µM (inactive)	> 100 µM (inactive)	> 100 µM (inactive)	> 100 µM (inactive)	> 100 µM (inactive)	> 100 µM (inactive)	> 100 µM (inactive)	> 100 µM (inactive)	> 100 µM (inactive)	> 100 µM (inactive)	> 100 µM (inactive)	> 100 µM (inactive)	> 100 µM (inactive)	> 100 µM (inactive)	> 100 µM (inactive)
NC(=O)c1c[se]c(C2OC(CO)C(O)C2O)n1 (stereo not drawn)	1.44 µM (inactive)	6.25 µM (inactive)	> 100 µM (inactive)	32.4 µM (inactive)	5.94 µM (inactive)	2.61 µM (inactive)	6.93 µM (inactive)	4.31 µM (inactive)	8.61 µM (inactive)	10.3 µM (inactive)	7.29 µM (inactive)	8.67 µM (inactive)	32.1 µM (inactive)	17.5 µM (inactive)	8.67 µM (inactive)	> 100 µM (inactive)	6.5 µM (inactive)	44 µM (inactive)	> 100 µM (inactive)	0.568 µM (active)
N=C(N)NCCC[C@H]1NC(=O)[C@@H](CCC(=O)O)NC(=O)[C@@H](CC(=O)O)NC(=O)[C@@H](CCC(=O)O)NC(=O)[C@H](Cc2c[nH]c3ccccc23)NC1=O (cyclo(W[dE][dD][dE][dR]))	0.351 µM (active)	> 7.5 µM (inactive)	> 7.5 µM (inactive)	> 7.5 µM (inactive)	> 7.5 µM (inactive)	–	> 7.5 µM (inactive)	> 7.5 µM (inactive)	> 7.5 µM (inactive)	> 7.5 µM (inactive)	> 7.5 µM (inactive)	> 7.5 µM (inactive)	> 7.5 µM (inactive)	> 7.5 µM (inactive)	> 7.5 µM (inactive)	0.191 µM (active)	> 7.5 µM (inactive)	> 7.5 µM (inactive)	> 7.5 µM (inactive)	> 7.5 µM (inactive)
